Results taken from patent US20070243161A1, “Epigenetic modification of the loci for CAMTA1 and/or FOXP3 as a marker for cancer treatment” (priority 2006, published 2007).

Experiments:
Foxp3 = test: Intracellular Foxp3 expression by FACS in TGF-β-cultured CD25-CD4+ T cells; type: cell-based, BALB/c mice
Protocol: Cytometric analysis was performed as previously described (Huehn, J. et al. Developmental stage, phenotype and migration distinguish naive- and effector/memory-like CD4+ regulatory T cells. J Exp Med 199, 303-313 (2004)) using a FACS Calibur or a LSRII (BD Biosciences) and the CellQuest™ software. Dead cells were excluded by PI (propidium iodide) or DAPI (diamidophenylindole) staining (Sigma). Intracellular Foxp3 staining was performed with the PE anti-mouse Foxp3 staining set according to the manufacturers instructions.
D4+ T cells were isolated from pooled spleen and LN single cell suspensions by using anti CD4-FITC plus anti FITC multisort microbeads and the AutoMACS magnetic separation system (Miltenyi Biotec). After release of beads according to the manufacturer's instructions, CD25+ cells were depleted by using anti CD25-APC plus anti APC microbeads. To avoid the expansion of pre-committed Foxp3+ Tregs, the inventors excluded the majority of residual Foxp3+ Tregs from the CD25−CD4+ T cell fraction by sorting for CD62L^high cells using anti CD62L microbeads. MACS-sorted CD62L^highCD25−CD4+ T cells were stimulated for 3 days using plate bound anti CD3 (6 μg/ml) and anti CD28 (4 μg/ml). For Th1 cultures 5 μg/ml anti-IL-4, 20 ng/ml IFN-γ and 5 ng/ml IL-12 was added to the medium. […] Foxp3 expression of sorted CD25+ cells was analyzed by intracellular staining. […]

foxp3 locus = test: Bisulphite sequencing of the foxp3 locus in CD25-CD4+ T cells cultured with TGF-β; type: cell-based, BALB/c mice
Excerpt: D4+ T cells were isolated from pooled spleen and LN single cell suspensions by using anti CD4-FITC plus anti FITC multisort microbeads and the AutoMACS magnetic separation system (Miltenyi Biotec). After release of beads according to the manufacturer's instructions, CD25+ cells were depleted by using anti CD25-APC plus anti APC microbeads. To avoid the expansion of pre-committed Foxp3+ Tregs, the inventors excluded the majority of residual Foxp3+ Tregs from the CD25−CD4+ T cell fraction by sorting for CD62L^high cells using anti CD62L microbeads. MACS-sorted CD62L^highCD25−CD4+ T cells were stimulated for 3 days using plate bound anti CD3 (6 μg/ml) and anti CD28 (4 μg/ml). For Th1 cultures 5 μg/ml anti-IL-4, 20 ng/ml IFN-γ and 5 ng/ml IL-12 was added to the medium. For TGF-β cultures 5 ng/ml TGF-β and 10 ng/ml IL-2 was used. After 3 days, cells were removed from the stimulus, transferred to non-coated plates and cultured for another 3 days. All cell culture was done with RPMI 1640 (Gibco) supplemented with 10% FCS (Sigma). On day 6, cultured cells were stained using anti CD25-APC and sorted for CD25+ cells by FACS (Aria). Foxp3 expression of sorted CD25+ cells was analyzed by intracellular staining. For restimulation experiments sorted CD25+ cells were stimulated for 3 days using plate bound anti CD3 (6 μg/ml) and anti CD28 (4 μg/ml) plus IL-2 (10 ng/ml). After 3 days, cells were removed from the stimulus, transferred to non-coated plates and cultured for another 3 days. On day 6, cultured cells were stained for CD25 and Foxp3 as described above.
Genomic DNA was isolated from purified T cells using the DNeasy tissue kit (Qiagen) following the supplier's recommendations. Sodium bisulphite treatment of genomic DNA was performed according to Olek et al. (Olek, A., Oswald, J. and Walter, J. A modified and improved method for bisulphite based cytosine methylation analysis. Nucleic Acids Res 24, 5064-6 (1996)) with minor modifications, resulting in the deamination of unmethylated cytosines to uracil, whereas methylated cytosines remain unchanged. In a subsequent PCR amplification uracils were replicated as thymidines. Thus, detection of a “C” in sequencing reactions reflects methylation of the genomic DNA at that site. Detection of a “T” at the same site instead reflects the absence of a methyl modification of the genomic cytosine.
PCRs were performed on MJ Research thermocyclers (Waltham) in a final volume of 25 μl containing 1×PCR Buffer, 1 U Taq DNA polymerase (Qiagen), 200 μM dNTPs, 12.5 pmol each of forward and reverse primers, and 7 ng of bisulphite-treated genomic DNA. The amplification conditions were 95° C. for 15 min and 40 cycles of 95° C. for 1 min, 55° C. for 45 sec and 72° C. for 1 min and a final extension step of 10 min at 72° C. PCR products were purified using ExoSAP-IT USB Corp.) and sequenced in both directions applying the PCR primers and the ABI Big Dye Terminator v1.1 cycle sequencing chemistry (Applied Biosystems) followed by capillary electrophoresis on an ABI 3100 genetic analyzer. Trace files were interpreted using ESME, which normalizes sequence traces, corrects for incomplete bisulphite conversion and allows for quantification of methylation signals (Lewin, J., Schmitt, A. O., Adorjan, P., Hildmann, T. and Piepenbrock, C. Quantitative DNA methylation analysis based on four-dye trace data from direct sequencing of PCR amplificates. Bioinformatics 20, 3005-12 (2004)). For each sample both PCR amplification and sequencing was repeated once. The following primers (5′ to 3′ direction) were used for both PCR amplification of bisulphite converted genomic DNA and sequence reactions: […]

[1] = cell culture in the presence of TGF-β
[2] = sorted CD25+ cells, day 6 TGF-β culture, exp. 1
[3] = sorted CD25+ cells, day 6 TGF-β culture, exp. 2

## TGF-β: cytokine (R and D Systems) added at 5 ng/ml with IL-2 to induce Foxp3+ Tregs from CD25-CD4+ T cells
Foxp3; CD25-CD4+ T cells activated and cultured 6 days with TGF-β, day 6
  Foxp3+ cells among TGF-β-cultured cells: > 98%
Foxp3; TGF-β-induced Tregs restimulated 6 days in the absence of TGF-β
  Foxp3 expression after restimulation: lost Foxp3 expression
foxp3 locus; [1]
  methylation of CpG motifs in amplicons 3 and 4: fully methylated
  methylation of CpG motifs within region covered by amplicons 1 and 2: clearly visible demethylation
foxp3 locus; [2]
  degree of methylation, CpG motif amplicon 1 (158): 100%
  degree of methylation, CpG motif amplicon 1 (180): 92%
  degree of methylation, CpG motif amplicon 1 (308): 63%
  degree of methylation, CpG motif amplicon 1 (344): 41%
  degree of methylation, CpG motif amplicon 1 (360): 60%
  degree of methylation, CpG motif amplicon 1 (394): 28%
  degree of methylation, CpG motif amplicon 1 (421): 42%
  degree of methylation, CpG motif amplicon 1 (426): 48%
  degree of methylation, CpG motif amplicon 2 (205): 74%
  degree of methylation, CpG motif amplicon 2 (224): 72%
  degree of methylation, CpG motif amplicon 2 (228): 100%
  degree of methylation, CpG motif amplicon 2 (236): 75%
  degree of methylation, CpG motif amplicon 2 (298): 64%
  degree of methylation, CpG motif amplicon 2 (368): 39%
  degree of methylation, CpG motif amplicon 3 (93): 100%
  degree of methylation, CpG motif amplicon 3 (170): 100%
  degree of methylation, CpG motif amplicon 3 (173): 100%
  degree of methylation, CpG motif amplicon 3 (176): 100%
  degree of methylation, CpG motif amplicon 3 (281): 100%
  degree of methylation, CpG motif amplicon 4 (69): 100%
  degree of methylation, CpG motif amplicon 4 (311): 100%
  degree of methylation, CpG motif amplicon 4 (315): 100%
  degree of methylation, CpG motif amplicon 4 (319): 100%
  degree of methylation, CpG motif amplicon 4 (338): 90%
  degree of methylation, CpG motif amplicon 4 (371): 100%
foxp3 locus; [3]
  degree of methylation, CpG motif amplicon 1 (158): 100%
  degree of methylation, CpG motif amplicon 1 (180): 93%
  degree of methylation, CpG motif amplicon 1 (308): 75%
  degree of methylation, CpG motif amplicon 1 (344): 41%
  degree of methylation, CpG motif amplicon 1 (360): 70%
  degree of methylation, CpG motif amplicon 1 (394): 38%
  degree of methylation, CpG motif amplicon 2 (205): 67.5%
  degree of methylation, CpG motif amplicon 2 (224): 75%
  degree of methylation, CpG motif amplicon 2 (228): 90%
  degree of methylation, CpG motif amplicon 2 (236): 66%
  degree of methylation, CpG motif amplicon 2 (298): 43%
  degree of methylation, CpG motif amplicon 2 (368): 50%
  degree of methylation, CpG motif amplicon 3 (170): 100%
  degree of methylation, CpG motif amplicon 3 (173): 100%
  degree of methylation, CpG motif amplicon 3 (176): 100%
  degree of methylation, CpG motif amplicon 3 (281): 96%
  degree of methylation, CpG motif amplicon 4 (69): 100%
  degree of methylation, CpG motif amplicon 4 (311): 100%
  degree of methylation, CpG motif amplicon 4 (315): 100%
  degree of methylation, CpG motif amplicon 4 (319): 100%
  degree of methylation, CpG motif amplicon 4 (338): 100%
  degree of methylation, CpG motif amplicon 4 (371): 100%
